# From patent publication US12473296B2, “Perk inhibiting compounds” (HiberCell, Inc., priority 2019, dated 2025)
# pIC50: −log10 of the molar value.
# What was measured:
# PERK = PERK (Homo sapiens (Human), UniProt Q9NZJ5); experiment: PERK cellular assay (TR-FRET, HEK293-EGFP-eIF2α cells, tunicamycin-induced ER stress); type: cell-based; conditions: tunicamycin 2 hours, read-out: Cellular IC50 (μM) (EIF2a)
# Outline: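 Cells pre-incubated with inhibitor 30 min at 37 °C, then ER stress induced with […] tunicamycin for 2 h. TR-FRET read on lysates; ratio normalized to DMSO control as percent inhibition over a 10-point, 3-fold dilution series; IC50 from 4-parameter logistic fit.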
# [1] = target: EIF2AK3 (PERK) catalytic domain (amino acids 536-1116) (Homo sapiens (Human), UniProt Q9NZJ5); experiment: PERK in vitro activity assay (isolated), TR-FRET kinase assay; conditions: isolated PERK enzyme, 1.5 μM ATP, GFP-eIF2a substrate; read-out: Biochemical IC50
# Chain of EIF2AK3 (PERK) catalytic domain (amino acids 536-1116) (Q9NZJ5 536-1116): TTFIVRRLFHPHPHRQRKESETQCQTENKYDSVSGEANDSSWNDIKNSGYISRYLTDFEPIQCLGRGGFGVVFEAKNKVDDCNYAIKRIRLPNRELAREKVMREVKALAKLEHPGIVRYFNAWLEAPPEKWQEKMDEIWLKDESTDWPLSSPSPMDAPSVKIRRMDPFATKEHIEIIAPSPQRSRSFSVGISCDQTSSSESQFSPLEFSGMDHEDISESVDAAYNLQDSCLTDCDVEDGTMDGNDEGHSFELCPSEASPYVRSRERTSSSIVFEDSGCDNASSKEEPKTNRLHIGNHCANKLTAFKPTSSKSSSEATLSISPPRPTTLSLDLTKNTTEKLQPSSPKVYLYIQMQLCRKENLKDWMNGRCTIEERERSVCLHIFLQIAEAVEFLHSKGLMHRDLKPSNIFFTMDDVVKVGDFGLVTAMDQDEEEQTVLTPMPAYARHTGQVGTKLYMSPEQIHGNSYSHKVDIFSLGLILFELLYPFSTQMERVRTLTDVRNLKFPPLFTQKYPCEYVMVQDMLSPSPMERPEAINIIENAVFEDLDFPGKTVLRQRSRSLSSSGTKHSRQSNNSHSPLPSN
# Outline: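 Human PERK catalytic domain (aa 536-1116) with 100-200 nM GFP-eIF2a in 50 mM HEPES pH 7.5, 10 mM MgCl2, 1.0 mM EGTA, 0.01% Brij-35; enzyme-started reaction run 45 min at room temperature. Stopped with 10 mM EDTA, 2 nM Tb-anti-phospho-eIF2a added for 90 min; IC50 from TR-FRET ratio by 4-parameter logistic fit.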
# Chain of PERK (Q9NZJ5 30-1116): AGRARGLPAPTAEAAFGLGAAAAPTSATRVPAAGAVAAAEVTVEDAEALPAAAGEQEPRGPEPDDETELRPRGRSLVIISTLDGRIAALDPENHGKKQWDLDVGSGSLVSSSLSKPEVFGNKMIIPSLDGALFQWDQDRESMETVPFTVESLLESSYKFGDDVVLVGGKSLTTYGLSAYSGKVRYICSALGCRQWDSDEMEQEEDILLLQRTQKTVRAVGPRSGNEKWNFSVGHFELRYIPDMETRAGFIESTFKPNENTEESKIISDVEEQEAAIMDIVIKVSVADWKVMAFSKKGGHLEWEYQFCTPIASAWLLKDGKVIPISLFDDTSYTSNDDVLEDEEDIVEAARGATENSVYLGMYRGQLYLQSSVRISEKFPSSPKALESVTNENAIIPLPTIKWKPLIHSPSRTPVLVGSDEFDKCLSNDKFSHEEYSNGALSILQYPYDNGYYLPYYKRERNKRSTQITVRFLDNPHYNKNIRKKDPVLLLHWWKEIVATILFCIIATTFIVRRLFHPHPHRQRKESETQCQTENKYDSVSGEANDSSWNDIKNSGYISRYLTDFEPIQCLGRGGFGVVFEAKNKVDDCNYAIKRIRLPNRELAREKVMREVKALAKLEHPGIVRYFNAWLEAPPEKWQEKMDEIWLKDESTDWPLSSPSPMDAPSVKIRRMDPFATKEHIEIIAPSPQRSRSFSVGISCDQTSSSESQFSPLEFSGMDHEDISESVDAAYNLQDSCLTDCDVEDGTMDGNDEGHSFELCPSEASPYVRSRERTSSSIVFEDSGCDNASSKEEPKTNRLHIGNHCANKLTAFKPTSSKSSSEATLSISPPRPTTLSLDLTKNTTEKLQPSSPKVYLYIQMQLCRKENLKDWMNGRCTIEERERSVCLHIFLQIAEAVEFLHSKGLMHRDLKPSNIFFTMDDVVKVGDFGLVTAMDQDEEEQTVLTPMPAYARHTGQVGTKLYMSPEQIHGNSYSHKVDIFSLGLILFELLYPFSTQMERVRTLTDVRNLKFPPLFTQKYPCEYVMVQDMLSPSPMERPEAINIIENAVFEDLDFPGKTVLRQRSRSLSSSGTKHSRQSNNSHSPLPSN
IC50 (PERK),pIC50 [1],SMILES
0.501 to 1 µM,7.00 to 7.29,"Cc1cc(NC(=O)Cc2ccccc2C(F)(F)F)ccc1-c1cnc(N)c(C(=O)NC(C)C)c1 [Example 201, 2-amino-N-isopropyl-5-(2-methyl-4-(2-(2-(trifluoromethyl)phenyl)acetamido)phenyl)nicotinamide]"
0.101 to 0.25 µM,7.00 to 7.29,"Cc1cc(NC(=O)Cc2cccc(C(F)(F)F)c2)ccc1-c1cnc(N)c(C(=O)NC(C)C)c1 [Example 202, 2-amino-N-isopropyl-5-(2-methyl-4-(2-(3-(trifluoromethyl)phenyl)acetamido)phenyl)nicotinamide]"
1 to 2 µM,5.52 to 5.70,"Cc1cc(NC(=O)Cc2ccc(C(F)(F)F)cc2)ccc1-c1cnc(N)c(C(=O)NC(C)C)c1 [Example 203, 2-amino-N-isopropyl-5-(2-methyl-4-(2-(4-(trifluoromethyl)phenyl)acetamido)phenyl) nicotinamide]"
0.101 to 0.25 µM,7.60 to 9.00,"CCc1cccc(CC(=O)Nc2ccc(-c3cnc(N)c(C(=O)NC(C)C)c3)c(C)c2)c1 [Example 205, 2-amino-5-(4-(2-(3-ethylphenyl)acetamido)-2-methylphenyl)-N-isopropylnicotinamide]"
2 to 3 µM,6.30 to 6.60,"CCc1ccc(CC(=O)Nc2ccc(-c3cnc(N)c(C(=O)NC(C)C)c3)c(C)c2)cc1 [Example 206, 2-amino-5-(4-(2-(4-ethylphenyl)acetamido)-2-methylphenyl)-N-isopropylnicotinamide]"
0.251 to 0.5 µM,7.60 to 9.00,"Cc1cc(NC(=O)Cc2cccc3ccccc23)ccc1-c1cnc(N)c(C(=O)NC(C)C)c1 [Example 207, 2-amino-N-isopropyl-5-(2-methyl-4-(2-(naphthalen-1-yl)acetamido)phenyl)nicotinamide]"
0.101 to 0.25 µM,7.30 to 7.59,"Cc1cc(NC(=O)Cc2ccc3ccccc3c2)ccc1-c1cnc(N)c(C(=O)NC(C)C)c1 [Example 208, 2-amino-N-isopropyl-5-(2-methyl-4-(2-(naphthalen-2-yl)acetamido)phenyl)nicotinamide]"
1 to 2 µM,6.60 to 7.00,"Cc1cc(NC(=O)Cc2ccc3ncccc3c2)ccc1-c1cnc(N)c(C(=O)NC(C)C)c1 [Example 209, 2-amino-N-isopropyl-5-(2-methyl-4-(2-(quinolin-6-yl)acetamido)phenyl)nicotinamide]"
1 to 2 µM,7.00 to 7.29,"Cc1cc(NC(=O)Cc2cncc3ccccc23)ccc1-c1cnc(N)c(C(=O)NC(C)C)c1 [Example 210, 2-amino-N-isopropyl-5-(4-(2-(isoquinolin-4-yl)acetamido)-2-methylphenyl) nicotinamide]"
2 to 3 µM,6.30 to 6.60,"Cc1cc(NC(=O)Cc2cccc3cnccc23)ccc1-c1cnc(N)c(C(=O)NC(C)C)c1 [Example 211, 2-amino-N-isopropyl-5-(4-(2-(isoquinolin-5-yl)acetamido)-2-methylphenyl) nicotinamide]"
> 5 µM,5.70 to 6.00,"Cc1cc(NC(=O)Cc2cccc3ncccc23)ccc1-c1cnc(N)c(C(=O)NC(C)C)c1 [Example 212, 2-amino-N-isopropyl-5-(2-methyl-4-(2-(quinolin-5-yl)acetamido)phenyl)nicotinamide]"
> 5 µM,5.70 to 6.00,"Cc1cc(NC(=O)CC2CC2)ccc1-c1cnc(N)c(C(=O)NC(C)C)c1 [Example 213, 2-amino-5-(4-(2-cyclopropyl-acetamido)-2-methylphenyl)-N-isopropylnicotinamide]"
> 5 µM,6.30 to 6.60,"Cc1cc(NC(=O)CC2CCC2)ccc1-c1cnc(N)c(C(=O)NC(C)C)c1 [Example 214, 2-amino-5-(4-(2-cyclobutylacetamido)-2-methylphenyl)-N-isopropylnicotinamide]"
> 5 µM,< 5.30,"Cc1cc(NC(=O)CC2CCCC2)ccc1-c1cnc(N)c(C(=O)NC(C)C)c1 [Example 215, 2-amino-5-(4-(2-cyclopentylacetamido)-2-methylphenyl)-N-isopropylnicotinamide]"
> 5 µM,5.70 to 6.00,"Cc1cc(NC(=O)CC2CCCCC2)ccc1-c1cnc(N)c(C(=O)NC(C)C)c1 [Example 216, 2-amino-5-(4-(2-cyclohexylacetamido)-2-methylphenyl)-N-isopropylnicotinamide]"
0.501 to 1 µM,< 5.30,"Cc1cc(NC(=O)c2ccccc2)ccc1-c1cnc(N)c(C(=O)NC(C)C)c1 [Example 217, 2-amino-5-(4-benzamido-2-methylphenyl)-N-isopropylnicotinamide]"
> 5 µM,5.70 to 6.00,"Cc1cc(NC(=O)N(C)c2ccccc2)ccc1-c1cnc(N)c(C(=O)NC(C)C)c1 [Example 218, 2-amino-N-isopropyl-5-(2-methyl-4-(3-methyl-3-phenylureido)phenyl)nicotinamide]"

SMILES,IC50 (PERK),pIC50 [1]
"Cc1cc(NC(=O)Oc2ccccc2)ccc1-c1cnc(N)c(C(=O)NC(C)C)c1 [Example 219, phenyl (4-(6-amino-5-(isopropylcarbamoyl)pyridin-3-yl)-3-methylphenyl)carbamate]",1 to 2 µM,5.70 to 6.00
